In ChEMBL document CHEMBL4028908, “The Discovery of 3-((4-Chloro-3-methoxyphenyl)amino)-1-((3R,4S)-4-cyanotetrahydro-2H-pyran-3-yl)-1H-pyrazole-4-carboxamide, a Highly Ligand Efficient and Efficacious Janus Kinase 1 Selective Inhibitor with Favorable Pharmacokinetic Properties” (J Med Chem, 2017):
≈ marks a conversion by molar mass, not a printed value.

Legend:
[1] = Intrinsic clearance in rat hepatocytes after 120 mins by LC-MS/MS analysis; format: ADME, cell-based, Hepatocyte; settings: read-out: CLH
[2] = target: Voltage-gated inwardly rectifying potassium channel KCNH2 (Homo sapiens, UniProt Q12809)
[3] = Lipophilicity, log D of the compound at 100 uM at pH 7 by HPLC/DAD analysis; format: physicochemical; settings: buffer
[4] = Intrinsic clearance in human hepatocytes after 120 mins by LC-MS/MS analysis; format: ADME, cell-based, Hepatocyte; settings: read-out: CLH
[5] = Oral bioavailability in rat at 1 mg/kg; format: ADME, organism-based; settings: in vivo
[6] = target: Non-receptor tyrosine-protein kinase TYK2 (Homo sapiens, UniProt P29597)
[7] = Solubility of the compound in FaSSIF solution at 100 uM after overnight incubation by UPLC/DAD analysis; format: physicochemical
[8] = target: T1, Tyrosine-protein kinase JAK3 (Homo sapiens, UniProt P52333)
T1 sequence (P52333 whole entry): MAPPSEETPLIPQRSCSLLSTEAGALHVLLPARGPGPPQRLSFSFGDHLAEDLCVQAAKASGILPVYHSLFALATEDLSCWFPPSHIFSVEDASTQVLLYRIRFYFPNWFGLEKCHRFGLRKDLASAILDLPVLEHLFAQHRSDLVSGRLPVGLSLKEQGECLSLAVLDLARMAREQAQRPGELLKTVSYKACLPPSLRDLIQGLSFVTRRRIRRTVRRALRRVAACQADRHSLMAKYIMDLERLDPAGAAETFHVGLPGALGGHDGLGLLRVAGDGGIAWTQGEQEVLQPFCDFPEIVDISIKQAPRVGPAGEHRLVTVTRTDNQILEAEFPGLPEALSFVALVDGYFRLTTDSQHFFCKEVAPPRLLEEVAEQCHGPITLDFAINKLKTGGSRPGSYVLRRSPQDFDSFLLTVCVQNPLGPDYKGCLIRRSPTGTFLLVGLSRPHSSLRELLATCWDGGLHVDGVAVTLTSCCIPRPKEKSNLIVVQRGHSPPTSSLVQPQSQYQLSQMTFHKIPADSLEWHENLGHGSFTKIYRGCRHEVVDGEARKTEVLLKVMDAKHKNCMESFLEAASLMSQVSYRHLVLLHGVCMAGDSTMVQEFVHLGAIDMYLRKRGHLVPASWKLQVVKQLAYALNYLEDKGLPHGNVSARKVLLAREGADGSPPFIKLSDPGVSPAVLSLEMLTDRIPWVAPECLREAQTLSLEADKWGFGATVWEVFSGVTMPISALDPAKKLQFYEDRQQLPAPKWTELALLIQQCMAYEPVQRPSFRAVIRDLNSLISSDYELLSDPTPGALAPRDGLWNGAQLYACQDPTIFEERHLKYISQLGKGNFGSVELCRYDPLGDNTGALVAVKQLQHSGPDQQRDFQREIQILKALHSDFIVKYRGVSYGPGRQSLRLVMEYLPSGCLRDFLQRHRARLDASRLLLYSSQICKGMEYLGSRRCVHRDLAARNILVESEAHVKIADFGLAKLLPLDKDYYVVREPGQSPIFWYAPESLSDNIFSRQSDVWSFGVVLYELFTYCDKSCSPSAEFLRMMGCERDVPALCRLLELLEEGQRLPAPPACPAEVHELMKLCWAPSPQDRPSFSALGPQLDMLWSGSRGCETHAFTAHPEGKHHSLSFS

[9] = target: T2, Tyrosine-protein kinase JAK2 (Homo sapiens, UniProt O60674)
[10] = target: T2, Tyrosine-protein kinase JAK2; remark: listed apart in the source
Homo sapiens = organism: Homo sapiens; test: Selectivity ratio of IC50 for GST-tagged recombinant human JAK2 catalytic domain to IC50 for GST-tagged recombinant human JAK1 catalytic domain
[11] = target: T3, Tyrosine-protein kinase JAK1 (Homo sapiens, UniProt P23458)
[12] = target: T3, Tyrosine-protein kinase JAK1; remark: listed apart in the source
[13] = Plasma clearance in rat at 0.5 mg/kg, iv or 1 mg/kg, po; format: ADME, organism-based
Rattus norvegicus [14] = test: Unbound clearance in rat at 0.5 mg/kg, iv or 1 mg/kg, po; format: ADME, organism-based; settings: in vivo
Rattus norvegicus [15] = test: Antiinflammatory activity in po dosed Lewis rat type 2 bovine collagen-induced arthritis model assessed as inhibition of paw swelling administered as bid on day 17; format: functional, organism-based
[16] = Plasma clearance in cynomolgus monkey at 0.25 mg/kg, iv or 0.5 mg/kg, po; format: ADME, organism-based, Macaca fascicularis
[17] = Intrinsic clearance in dog hepatocytes after 120 mins by LC-MS/MS analysis; format: ADME, cell-based, Canis lupus familiaris, Hepatocyte; settings: read-out: CLH
[18] = target: T3, Tyrosine-protein kinase JAK1; test: Inhibition of JAK1 in human whole blood assessed as decrease in cytokine-stimulated STAT phosphorylation preincubated for 20 mins followed by cytokine addition measured after 30 mins
Canis familiaris = test: Unbound clearance in dog at 0.25 mg/kg, iv or 0.5 mg/kg, po; format: ADME, organism-based, Canis lupus familiaris; settings: in vivo
[19] = Plasma clearance in dog at 0.25 mg/kg, iv or 0.5 mg/kg, po; format: ADME, organism-based, Canis lupus familiaris
[20] = Oral bioavailability in dog at 0.5 mg/kg; format: ADME, organism-based, Canis lupus familiaris; settings: in vivo
[21] = Protein binding in dog plasma; format: ADME, cell-free, Canis lupus familiaris; settings: read-out: PPB (converted)
[22] = Half life in cynomolgus monkey at 0.25 mg/kg, iv or 0.5 mg/kg, po; format: ADME, organism-based, Macaca fascicularis; settings: in vivo
Cynomolgus monkey = test: Unbound clearance in cynomolgus monkey at 0.25 mg/kg, iv or 0.5 mg/kg, po; format: ADME, organism-based, Macaca fascicularis; settings: in vivo
[23] = Half life in dog at 0.25 mg/kg, iv or 0.5 mg/kg, po; format: ADME, organism-based, Canis lupus familiaris; settings: in vivo
[24] = Protein binding in rat plasma; format: ADME, cell-free; settings: read-out: PPB (converted)
[25] = Intrinsic clearance in cynomolgus monkey hepatocytes after 120 mins by LC-MS/MS analysis; format: ADME, cell-based, Macaca fascicularis, Hepatocyte; settings: read-out: CLH
[26] = Volume of distribution at steady state in cynomolgus monkey at 0.25 mg/kg, iv or 0.5 mg/kg, po; format: ADME, organism-based, Macaca fascicularis; settings: in vivo, read-out: Vdss
[27] = Volume of distribution at steady state in rat at 0.5 mg/kg, iv or 1 mg/kg, po; format: ADME, organism-based; settings: in vivo, read-out: Vdss
[28] = Oral bioavailability in cynomolgus monkey at 0.5 mg/kg; format: ADME, organism-based, Macaca fascicularis; settings: in vivo
[29] = Half life in rat at 0.5 mg/kg, iv or 1 mg/kg, po; format: ADME, organism-based; settings: in vivo
[30] = Protein binding in cynomolgus monkey plasma; format: ADME, cell-free, Macaca fascicularis; settings: read-out: PPB (converted)
[31] = Volume of distribution at steady state in dog at 0.25 mg/kg, iv or 0.5 mg/kg, po; format: ADME, organism-based, Canis lupus familiaris; settings: in vivo, read-out: Vdss

T3 sequence (P23458 whole entry): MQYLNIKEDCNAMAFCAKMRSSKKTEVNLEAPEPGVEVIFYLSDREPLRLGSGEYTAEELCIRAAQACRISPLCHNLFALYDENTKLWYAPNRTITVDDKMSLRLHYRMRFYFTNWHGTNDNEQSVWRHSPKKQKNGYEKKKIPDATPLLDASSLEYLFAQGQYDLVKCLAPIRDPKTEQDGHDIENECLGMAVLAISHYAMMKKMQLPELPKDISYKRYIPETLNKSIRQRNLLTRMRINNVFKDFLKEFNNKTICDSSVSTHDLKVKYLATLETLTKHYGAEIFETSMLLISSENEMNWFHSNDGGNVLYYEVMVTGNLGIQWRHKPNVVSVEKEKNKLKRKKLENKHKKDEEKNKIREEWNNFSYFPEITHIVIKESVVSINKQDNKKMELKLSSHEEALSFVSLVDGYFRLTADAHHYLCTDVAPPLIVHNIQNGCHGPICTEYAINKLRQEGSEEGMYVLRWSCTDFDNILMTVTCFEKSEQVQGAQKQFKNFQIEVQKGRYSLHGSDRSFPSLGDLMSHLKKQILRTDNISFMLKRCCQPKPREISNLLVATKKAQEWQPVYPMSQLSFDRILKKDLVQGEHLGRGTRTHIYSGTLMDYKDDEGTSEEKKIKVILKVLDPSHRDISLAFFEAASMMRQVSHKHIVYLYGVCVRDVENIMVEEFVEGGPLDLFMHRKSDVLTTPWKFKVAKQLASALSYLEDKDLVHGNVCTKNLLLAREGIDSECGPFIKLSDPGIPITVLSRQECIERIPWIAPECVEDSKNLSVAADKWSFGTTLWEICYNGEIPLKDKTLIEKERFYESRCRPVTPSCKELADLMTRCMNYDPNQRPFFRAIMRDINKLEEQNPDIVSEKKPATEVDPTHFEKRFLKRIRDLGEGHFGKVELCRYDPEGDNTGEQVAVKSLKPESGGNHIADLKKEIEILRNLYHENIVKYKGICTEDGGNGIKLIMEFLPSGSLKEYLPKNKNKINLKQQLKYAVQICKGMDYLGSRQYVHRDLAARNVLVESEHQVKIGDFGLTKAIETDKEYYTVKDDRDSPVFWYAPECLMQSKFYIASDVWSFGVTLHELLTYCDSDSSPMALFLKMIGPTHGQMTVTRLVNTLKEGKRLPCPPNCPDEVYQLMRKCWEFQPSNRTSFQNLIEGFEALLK
Chain of Voltage-gated inwardly rectifying potassium channel KCNH2 (Q12809 whole entry): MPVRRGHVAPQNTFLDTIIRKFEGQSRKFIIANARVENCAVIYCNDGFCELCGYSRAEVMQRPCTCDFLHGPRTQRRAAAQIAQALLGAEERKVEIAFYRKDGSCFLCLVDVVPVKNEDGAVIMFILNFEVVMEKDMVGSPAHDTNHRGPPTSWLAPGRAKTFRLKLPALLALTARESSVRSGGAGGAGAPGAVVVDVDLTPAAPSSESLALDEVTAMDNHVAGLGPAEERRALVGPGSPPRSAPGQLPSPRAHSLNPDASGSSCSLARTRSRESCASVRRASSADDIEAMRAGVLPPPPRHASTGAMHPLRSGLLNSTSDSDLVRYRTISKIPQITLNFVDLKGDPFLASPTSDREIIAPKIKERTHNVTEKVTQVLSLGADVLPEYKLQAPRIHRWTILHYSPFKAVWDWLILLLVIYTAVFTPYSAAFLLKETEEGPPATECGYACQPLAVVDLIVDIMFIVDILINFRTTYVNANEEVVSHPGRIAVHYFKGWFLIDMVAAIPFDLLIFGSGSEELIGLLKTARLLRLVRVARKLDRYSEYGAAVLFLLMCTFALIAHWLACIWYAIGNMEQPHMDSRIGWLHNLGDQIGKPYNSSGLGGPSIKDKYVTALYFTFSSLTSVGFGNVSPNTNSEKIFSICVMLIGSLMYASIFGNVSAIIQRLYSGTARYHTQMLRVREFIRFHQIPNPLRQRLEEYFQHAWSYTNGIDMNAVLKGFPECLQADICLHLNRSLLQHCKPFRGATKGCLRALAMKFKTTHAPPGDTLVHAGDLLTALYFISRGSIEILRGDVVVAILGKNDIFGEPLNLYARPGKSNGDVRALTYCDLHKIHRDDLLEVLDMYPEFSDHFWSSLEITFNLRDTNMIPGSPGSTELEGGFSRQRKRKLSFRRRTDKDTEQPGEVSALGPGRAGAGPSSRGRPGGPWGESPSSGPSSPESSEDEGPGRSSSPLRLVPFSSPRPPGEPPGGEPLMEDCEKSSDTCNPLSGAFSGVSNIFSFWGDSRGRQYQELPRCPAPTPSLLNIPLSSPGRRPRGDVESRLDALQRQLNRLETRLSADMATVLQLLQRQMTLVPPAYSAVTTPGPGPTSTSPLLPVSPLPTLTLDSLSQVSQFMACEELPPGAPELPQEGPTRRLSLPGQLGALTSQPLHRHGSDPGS
Chain of Non-receptor tyrosine-protein kinase TYK2 (P29597 whole entry): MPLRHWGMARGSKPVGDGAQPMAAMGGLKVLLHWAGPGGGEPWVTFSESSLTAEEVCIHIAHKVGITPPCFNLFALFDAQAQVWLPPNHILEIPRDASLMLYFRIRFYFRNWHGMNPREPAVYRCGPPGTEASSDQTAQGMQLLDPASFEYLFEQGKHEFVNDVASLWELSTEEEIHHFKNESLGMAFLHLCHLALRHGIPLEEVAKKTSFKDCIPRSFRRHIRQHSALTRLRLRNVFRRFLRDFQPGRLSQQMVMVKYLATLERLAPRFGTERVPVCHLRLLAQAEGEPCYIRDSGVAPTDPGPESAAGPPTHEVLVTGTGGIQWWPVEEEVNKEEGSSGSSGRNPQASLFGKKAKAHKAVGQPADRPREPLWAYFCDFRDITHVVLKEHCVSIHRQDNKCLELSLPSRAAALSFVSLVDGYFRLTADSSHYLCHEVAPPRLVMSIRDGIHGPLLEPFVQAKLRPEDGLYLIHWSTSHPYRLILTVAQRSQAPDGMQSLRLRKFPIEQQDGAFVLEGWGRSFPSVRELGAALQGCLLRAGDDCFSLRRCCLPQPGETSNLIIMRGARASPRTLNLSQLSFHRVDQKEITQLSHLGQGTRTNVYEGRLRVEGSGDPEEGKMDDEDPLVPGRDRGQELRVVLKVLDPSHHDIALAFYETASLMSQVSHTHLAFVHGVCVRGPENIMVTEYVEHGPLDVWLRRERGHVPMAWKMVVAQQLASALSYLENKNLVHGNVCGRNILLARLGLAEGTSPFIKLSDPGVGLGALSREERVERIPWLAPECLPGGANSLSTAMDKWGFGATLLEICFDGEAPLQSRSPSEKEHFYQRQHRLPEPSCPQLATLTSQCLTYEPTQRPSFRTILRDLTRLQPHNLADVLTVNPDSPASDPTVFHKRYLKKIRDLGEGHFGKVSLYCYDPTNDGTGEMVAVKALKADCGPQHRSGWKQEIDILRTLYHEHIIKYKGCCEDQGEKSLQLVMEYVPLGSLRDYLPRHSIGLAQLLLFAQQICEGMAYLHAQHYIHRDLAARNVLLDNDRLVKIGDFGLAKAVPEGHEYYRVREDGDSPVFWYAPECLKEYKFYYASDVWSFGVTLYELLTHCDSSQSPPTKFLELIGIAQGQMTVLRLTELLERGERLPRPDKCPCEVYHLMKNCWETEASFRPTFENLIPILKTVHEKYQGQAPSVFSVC
T2 sequence (O60674 whole entry): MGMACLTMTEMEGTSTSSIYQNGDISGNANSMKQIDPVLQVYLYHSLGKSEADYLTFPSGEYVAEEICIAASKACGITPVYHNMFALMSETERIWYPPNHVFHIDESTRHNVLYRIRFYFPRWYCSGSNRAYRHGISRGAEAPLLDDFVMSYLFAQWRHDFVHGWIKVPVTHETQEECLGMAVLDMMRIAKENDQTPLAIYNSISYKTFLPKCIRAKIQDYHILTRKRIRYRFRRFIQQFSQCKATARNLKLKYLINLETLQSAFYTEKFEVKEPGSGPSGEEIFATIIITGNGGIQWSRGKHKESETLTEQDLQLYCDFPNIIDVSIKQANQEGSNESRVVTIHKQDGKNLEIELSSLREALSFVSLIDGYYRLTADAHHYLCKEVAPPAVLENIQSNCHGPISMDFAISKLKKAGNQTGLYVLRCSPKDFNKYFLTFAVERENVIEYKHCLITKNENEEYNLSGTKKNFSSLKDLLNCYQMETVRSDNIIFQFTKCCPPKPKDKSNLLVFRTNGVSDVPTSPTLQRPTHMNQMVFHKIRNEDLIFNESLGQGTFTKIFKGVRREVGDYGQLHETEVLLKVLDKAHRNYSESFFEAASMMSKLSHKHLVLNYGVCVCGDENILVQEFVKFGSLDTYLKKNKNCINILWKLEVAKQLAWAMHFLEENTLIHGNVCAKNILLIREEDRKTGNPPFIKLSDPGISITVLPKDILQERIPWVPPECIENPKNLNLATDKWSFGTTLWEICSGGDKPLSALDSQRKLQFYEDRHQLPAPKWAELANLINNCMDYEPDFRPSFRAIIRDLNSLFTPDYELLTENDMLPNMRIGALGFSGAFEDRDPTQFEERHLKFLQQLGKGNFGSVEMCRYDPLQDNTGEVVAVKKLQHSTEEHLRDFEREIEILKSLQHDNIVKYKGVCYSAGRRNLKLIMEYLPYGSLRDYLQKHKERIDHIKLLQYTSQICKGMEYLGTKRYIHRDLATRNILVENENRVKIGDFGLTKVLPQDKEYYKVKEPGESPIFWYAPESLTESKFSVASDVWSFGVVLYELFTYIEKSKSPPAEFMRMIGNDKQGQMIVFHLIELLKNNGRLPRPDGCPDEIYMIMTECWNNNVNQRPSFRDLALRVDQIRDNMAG

Row | CLint scaled [1] [mL/min/kg] | logD at 100 µM [3] | CLint scaled [4] [mL/min/kg] | bioavailability [5] [%] | IC50 [6] [nM] | solubility at 100 µM [7] [µM] | IC50 [8] [nM] | IC50 [9] [nM] | IC50 [10] [nM] | IC50 [11] [nM] | IC50 [12] [nM] | clearance [13] [mL/min/kg] | CL free (Rattus norvegicus [14]) [mL/min/kg] | Structure (SMILES) | IC50 [2] [nM] | Ratio IC50 (Homo sapiens) | further results
1 | 9 | 2.57 | 85 | 71 | 2 | 39 (≈ 13.5 µg/mL) | 256 | – | – | – | – | – | – | N#C[C@H]1CCOC[C@@H]1n1cc(C(N)=O)c(Nc2ccc(Cl)cc2)n1 | 40000 | – | –
2 | 59 | 2.27 | 28 | 42 | 0.7 | – | 196 | 0.8 | 54 | 5 | 0.1 | – | – | N#C[C@H]1CCOC[C@@H]1n1cc(C(N)=O)c(Nc2ccc(OC(F)F)cc2)n1 | 25000 | 11 | –
3 | < 40 | 2.18 | < 20 | 40 | 1.8 | 42 (≈ 13.8 µg/mL) | 304 | 2 | 334 | 31 | 0.3 | – | – | N#C[C@H]1CCOC[C@@H]1n1cc(C(N)=O)c(Nc2ccc(F)cc2)n1 | 40000 | 7 | –
4 | 262 | 2.58 | 41 | – | 3.9 | – | 280 | 1.9 | 200 | 37 | 0.5 | – | – | N#C[C@H]1CCOC[C@@H]1n1cc(C(N)=O)c(Nc2ccc(C3CC3)cc2)n1 | 35000 | 4 | –
5 | 160 | 2.66 | 25 | – | – | – | – | – | – | – | – | 484 | 12100 | N#C[C@H]1CCCC[C@@H]1n1cc(C(N)=O)c(Nc2ccccc2)n1 | > 60000 | – | –
6 | 6 | 1.77 | 3 | 47 | 1.2 | 130 (≈ 43.7 µg/mL) | 230 | 1.2 | 89 | 13 | 0.15 | 19 | 100 | N#Cc1ccc(Nc2nn([C@H]3COCC[C@@H]3C#N)cc2C(N)=O)cc1 | 40000 | 8 | inhibition (Rattus norvegicus [15]): Dose-dependent effect; clearance [16]: 2.4 mL/min/kg; CLint scaled [17]: 20 mL/min/kg; IC50 [18]: 220 nM; CL free (Canis familiaris): 67 mL/min/kg; clearance [19]: 12 mL/min/kg; bioavailability [20]: 51%; fraction unbound [21]: 0.18; half-life [22]: 5.6 h; CL free (Cynomolgus monkey): 12 mL/min/kg; half-life [23]: 2.6 h; fraction unbound [24]: 0.19; CLint scaled [25]: 6 mL/min/kg; Vd [26]: 1 L/kg; Vd [27]: 2.6 L/kg; bioavailability [28]: 18%; half-life [29]: 1.4 h; fraction unbound [30]: 0.21; Vd [31]: 2.7 L/kg
